# Test results reported in patent US10477864B2, “Microbiocidal quinoline (thio)carboxamide derivatives” (priority 2016, dated 2019).
# Tests used:
# [1] = tested on: Botryotinia fuckeliana (Botrytis cinerea); assay: Botryotinia fuckeliana (Botrytis cinerea) / liquid culture (gray mould); type: cell-based; settings: 72 h, read-out: control of Botryotinia fuckeliana
# Fusarium culmorum [2] = assay: microbe, parasite or virus in culture; type: cell-based; settings: read-out: control of Fusarium culmorum
# Fusarium culmorum [3] = assay: whole plant or invertebrate; type: in vivo; settings: in Triticum aestivum, read-out: control of Fusarium culmorum
# [4] = tested on: Glomerella lagenarium (Colletotrichum lagenarium); assay: Glomerella lagenarium (Colletotrichum lagenarium) / liquid culture (anthracnose); type: cell-based; settings: Colletotrichum orbiculare; read-out: control of Glomerella lagenarium
# [5] = tested on: Monographella nivalis (Microdochium nivale); assay: Monographella nivalis (Microdochium nivale) / liquid culture (foot rot cereals); type: cell-based; settings: 96 h, read-out: control of Monographella nivalis
# [6] = tested on: Magnaporthe grisea (Pyricularia oryzae); assay: microbe, parasite or virus in culture; type: cell-based; settings: 72 h, read-out: control of Magnaporthe grisea
# Sclerotinia sclerotiorum = Sclerotinia sclerotiorum / liquid culture (cottony rot); settings: 72 h, read-out: control of Sclerotinia sclerotiorum
# Description: Sclerotinia sclerotiorum/Liquid Culture (Cottony Rot)
# Mycelia fragments of a newly grown liquid culture of the fungus are directly mixed into nutrient broth (Vogels broth). After placing a (DMSO) solution of test compound into a microtiter plate (96-well format) the nutrient broth containing the fungal material is added. The test plates are incubated at 24° C. and the inhibition of growth is determined photometrically 3-4 days after application.
# Gaeumannomyces graminis = Gaeumannomyces graminis / liquid culture (take-all of cereals); type: cell-based; settings: read-out: control of Gaeumannomyces graminis
Compound,inhibition of growth at 200 ppm [1] [%],inhibition of growth at 200 ppm (Fusarium culmorum [2]) [%],pest or weed control at 200 ppm (Fusarium culmorum [3]) [%],inhibition of growth at 200 ppm [4] [%],inhibition of growth at 200 ppm [5] [%],inhibition of growth at 200 ppm [6] [%],melting point [°C],inhibition of growth at 20 ppm (Sclerotinia sclerotiorum) [%],inhibition of growth at 200 ppm (Gaeumannomyces graminis) [%]
"C=C(C)CC(C)(Cc1ccccc1)NC(=O)c1cnc2ccccc2c1 (centres unmarked) [Compound E-36, N-(1-benzyl-1,3-dimethyl-but-3-enyl)quinoline-3-carboxamide]",≥ 80,≥ 80,≥ 80,≥ 80,≥ 80,≥ 80,99 to 103,≥ 80,–
"Cc1c(C(=O)NC(C)(Cc2ccccc2)CC(C)C)cnc2c(F)cccc12 (centres unmarked) [Compound E-15, N-(1-benzyl-1,3-dimethyl-butyl)-8-fluoro-4-methyl-quinoline-3-carboxamide]",≥ 80,≥ 80,≥ 80,≥ 80,–,≥ 80,92 to 94,≥ 80,–
"CC1(CC(C)(Cc2ccccc2)NC(=O)c2cnc3c(F)cccc3c2)CC1 (centres unmarked) [Compound E-47, N-[1-benzyl-1-methyl-2-(1-methylcyclopropyl)ethyl]-8-fluoro-quinoline-3-carboxamide]",≥ 80,≥ 80,–,≥ 80,–,≥ 80,126 to 129,≥ 80,≥ 80
"Cc1cccc2cc(C(=O)NC(C)(Cc3ccccc3)CC(C)C)cnc12 (centres unmarked) [Compound E-20, N-(1-benzyl-1,3-dimethyl-butyl)-8-methyl-quinoline-3-carboxamide]",≥ 80,≥ 80,≥ 80,≥ 80,≥ 80,≥ 80,132 to 133,≥ 80,≥ 80
"CC(Cc1ccccc1)(CC(F)(F)F)NC(=O)c1cnc2c(F)cccc2c1 (centres unmarked) [Compound E-39, N-(1-benzyl-3,3,3-trifluoro-1-methyl-propyl)-8-fluoro-quinoline-3-carboxamide]",≥ 80,≥ 80,≥ 80,≥ 80,–,≥ 80,158 to 160,≥ 80,≥ 80
"CC(C)CC(C)(Cc1ccc(F)cc1)NC(=O)c1cnc2c(F)cccc2c1 (centres unmarked) [Compound E-24, 8-fluoro-N-[1-[(4-fluorophenyl)methyl]-1,3-dimethyl-butyl]quinoline-3-carboxamide]",≥ 80,≥ 80,≥ 80,≥ 80,≥ 80,≥ 80,38 to 39,≥ 80,≥ 80
"CC(C)CC(C)(Cc1ccccc1)NC(=S)c1cnc2c(F)cccc2c1 (centres unmarked) [Compound E-114, N-(1-benzyl-1,3-dimethyl-butyl)-8-fluoro-quinoline-3-carbothioamide]",≥ 80,≥ 80,≥ 80,≥ 80,≥ 80,≥ 80,150 to 153,≥ 80,–
CC(C)CC(C)(Cc1ccc(Cl)cc1)NC(=O)c1cnc2c(F)cccc2c1 (centres unmarked) [Compound E-25],≥ 80,≥ 80,≥ 80,≥ 80,–,≥ 80,57 to 59,≥ 80,≥ 80
"CC(C)CC(C)(Cc1ccccc1F)NC(=O)c1cnc2c(F)cccc2c1 (centres unmarked) [Compound E-21, 8-fluoro-N-[1-[(2-fluorophenyl)methyl]-1,3-dimethyl-butyl]quinoline-3-carboxamide]",≥ 80,≥ 80,≥ 80,≥ 80,≥ 80,≥ 80,105 to 106,–,≥ 80
"CC(C)(C)CC(C)(Cc1ccccc1)NC(=O)c1cnc2c(F)cccc2c1 (centres unmarked) [Compound E-34, N-(1-benzyl-1,3,3-trimethyl-butyl)-8-fluoro-quinoline-3-carboxamide]",≥ 80,≥ 80,–,≥ 80,≥ 80,≥ 80,48 to 50,≥ 80,–
"C=C(C)CC(C)(Cc1ccccc1)NC(=O)c1cnc2c(F)cccc2c1 (centres unmarked) [Compound E-35, N-(1-benzyl-1,3-dimethyl-but-3-enyl)-8-fluoro-quinoline-3-carboxamide]",≥ 80,≥ 80,≥ 80,≥ 80,≥ 80,≥ 80,115 to 117,≥ 80,≥ 80
"C=C(C)C[C@](C)(Cc1ccccc1)NC(=O)c1cnc2c(F)cccc2c1 [Compound F-10, N-[(1R)-1-benzyl-1,3-dimethyl-but-3-enyl]-8-fluoro-quinoline-3-carboxamide]",≥ 80,≥ 80,≥ 80,≥ 80,≥ 80,–,–,≥ 80,≥ 80
"CC(C)C[C@](C)(Cc1ccccc1)NC(=O)c1cnc2c(F)cccc2c1 [Compound F-1, N-[(1R)-1-benzyl-1,3-dimethyl-butyl]-8-fluoro-quinoline-3-carboxamide]",≥ 80,≥ 80,≥ 80,≥ 80,≥ 80,≥ 80,–,≥ 80,≥ 80
"CC(C)CC(C)(Cc1ccccc1)NC(=O)c1cnc2c(Cl)cccc2c1 (centres unmarked) [Compound E-14, N-(1-benzyl-1,3-dimethyl-butyl)-8-chloro-quinoline-3-carboxamide]",≥ 80,≥ 80,–,≥ 80,≥ 80,≥ 80,147 to 148,≥ 80,≥ 80
"CC(C)CC(C)(Cc1ccccc1Cl)NC(=O)c1cnc2c(F)cccc2c1 (centres unmarked) [Compound E-22, N-[1-[(2-chlorophenyl)methyl]-1,3-dimethyl-butyl]-8-fluoro-quinoline-3-carboxamide]",≥ 80,≥ 80,≥ 80,≥ 80,≥ 80,≥ 80,109 to 110,–,≥ 80
"CC(C)CC(C)(Cc1cccc(F)c1)NC(=O)c1cnc2c(F)cccc2c1 (centres unmarked) [Compound E-26, 8-fluoro-N-[1-[(3-fluorophenyl)methyl]-1,3-dimethyl-butyl]quinoline-3-carboxamide]",≥ 80,≥ 80,≥ 80,≥ 80,≥ 80,≥ 80,45 to 47,≥ 80,≥ 80
"CC(C)(C)CC(Cc1ccccc1)NC(=O)c1cnc2c(F)cccc2c1 (centres unmarked) [Compound E-28, N-(1-benzyl-3,3-dimethyl-butyl)-8-fluoro-quinoline-3-carboxamide]",≥ 80,≥ 80,≥ 80,≥ 80,≥ 80,≥ 80,178 to 180,≥ 80,≥ 80
"CC(C)CC(Cc1ccccc1)NC(=O)c1cnc2c(F)cccc2c1 (centres unmarked) [Compound E-29, N-(1-benzyl-3-methyl-butyl)-8-fluoro-quinoline-3-carboxamide]",≥ 80,≥ 80,≥ 80,≥ 80,–,≥ 80,136 to 139,≥ 80,–
"CC(C)CC(C)(Cc1ccccc1)NC(=O)c1cnc2c(F)c(F)ccc2c1 (centres unmarked) [Compound E-48, N-(1-benzyl-1,3-dimethyl-butyl)-7,8-difluoro-quinoline-3-carboxamide]",≥ 80,≥ 80,≥ 80,≥ 80,≥ 80,≥ 80,114 to 116,–,≥ 80
